Counter-ions that a name gives are not always drawn.
What was measured:
[1] = format: in vivo, human volunteers; settings: in vivo
Procedure: The saliva samples were refrigerated until analysis.
To either 2.7 grams unchewed gum sample or the remaining bolus of chewed gum, was added 3.0 millileters of internal standard (Hesperetin) in methanol, 6.0 milliliters hexane and 3.0 milliliters distilled water. Samples were homogenized using a Polytron Homogenizer model PT10/35 from Brinkmann Instruments, fitted with a PTA10TS generator for at least 30 seconds on ice, or until no lumps of non-dispersed gum were visible in the sample. Samples were then centrifuged in a Dynac Tabletop Centrifuge at top speed for ten minutes. The lower, amber, aqueous/methanol layer were then filtered through 25 millimeter, 0.45 micrometer nylon Acrodisc syringe filters from Gelman into 4 milliliter autosampler vials and tightly capped with polytetrafluorothylene lined septum in open-top screw caps. These samples were then analyzed using high pressure liquid chromatography for glabridin and/or glycyrrhizic and 18β-glycyrrhetinic acid, and were quantitated against a 4-point linear curve prepared by spiking approximately 2.7 grams unchewed samples of Wrigley Extra Sugarfree Peppermint gum with known levels of purified glabridin, glycyrrhizic acid monoammonium salt and 18β-glycyrrhetinicacid.
For the analysis of the gum bolus, both chewed and unchewed, a Polytron Homogenizer, described above was used. The gum sample was placed in a heavy wall glass tube. Internal standard ([…]) ethyl acetate ([…]) and water ([…]) were added. The sample was homogenized for approximately 30 seconds, or until no particles could be seen. The tubes were then centrifuged for 10 minutes on a clinical centrifuge at maximum speed. The supernatant was injected directly onto the gas chromatograph. The oven program was modified to allow resolution of ROF1 components from those of the peppermint flavoring. The gas chromatograph was calibrated using a three point standard curve to quantify the following components: menthol (flavor); geraniol (oil geraniol); cedrene, thujopsene (RC1); pinene, cineol, camphor, bornyl acetate (ROF1). The initial temperature was decreased from 140° C. to 100° C. The temperature gradient was changed from 10° C./minute to 4° C./minute. The split ratio was 50:1, and injection volume was 1 μL as per the method. A cleanup gradient was run every fifth sample as described previously.
A recovery study was performed in triplicate using blank Wrigley's Peppermint Gum (chewed and unchewed) spiked with stand and solution. Recovery was calculated relative to a direct standard consisting of spike solution without sample matrix.

[2] = for Above MIC in Saliva (Y/N): concentration in saliva at any time above MIC relative to Porphyromonas gingivalis
Procedure: (§1) Ten volunteers chewed 2.7 grams samples of each gum formulation and provided saliva samples at intervals and the gum bolus at the end of the 25 minute chewing period. High pressure liquid chromatography and gas chromatography were used to analyze the gum bolus and saliva non-volatile and volatile components, respectively.
(§2) Saliva samples were collected from each of the individuals prior to chewing 2.7 grams of gum, and at 1.0, 2.5, 5.0, 10.0, and 25.0 minutes while chewing the gum. The saliva samples were refrigerated until analysis. The gum bolus that remained after 25 minutes was saved and extracted immediately or stored refrigerated until extraction for analysis.
(§3) Samples were Vortex-mixed in Multi-tube vortex mixer for one minute and then centrifuged at top speed in clinical centrifuge for two minutes. Supernatants were carefully transferred to 1 milliliter glass shell vials and capped. Analysis was carried out either by isocratic elution for glabridin-only samples, or gradient elution for the samples containing the glycyrrhizic and 18β-glycyrrhetinic acids using high pressure liquid chromatography. Glabridin concentrations were converted to GLY concentrations by taking the weight percent glabridin in GLY to be 2.74 percent.
(§4) The calibration curve was prepared using spiked blank saliva.
(§5) For saliva, the essential oils of menthol, cedarwood oil, geraniol and Rosmarinus officianalis were determined by capillary gas chromatography. The split ratio was 25:1. The injection volume was 2 μL. Four hundred μL of saliva was extracted from the 1 milliliter of ethyl acetate containing an internal standard (hexadecane) in 1.5 milliliter Eppendorf tubes. After centrifugation, the organic layer was injected directly into the Hewlett-Packard 6890 gas chromatograph. […] For this reason, only the samples from 0 to 10 minutes were analyzed. A cleanup gradient was run from 190 to 300° C. every fifth sample to remove less volatile interferences from the column.

clinical = settings: human, in vivo
Procedure: as §1, §2, §3, §4, §5

Structure (SMILES): CC1(C)[C@@H](O)CC[C@]2(C)[C@H]3C(=O)C=C4[C@@H]5C[C@@](C)(C(=O)O)CC[C@]5(C)CC[C@@]4(C)[C@]3(C)CC[C@@H]12 [GA, 18β-Glycyrrhetinic acid]
- Release from Chewed Gum Bolus after 25 min [1]: 15%
- Above MIC in Saliva (Y/N) [2]: No
- concentration at 1 min (clinical): 1.8 µg/mL
- concentration at 2.5 min (clinical): 1.5 µg/mL
- concentration at 5 min (clinical): 1.6 µg/mL
- concentration at 10 min (clinical): 1.8 µg/mL
- concentration at 25 min (clinical): 2.3 µg/mL

Structure (SMILES): CC1(C)[C@@H](O[C@H]2O[C@H](C(=O)O)[C@@H](O)[C@H](O)[C@H]2O[C@@H]2O[C@H](C(=O)O)[C@@H](O)[C@H](O)[C@H]2O)CC[C@]2(C)[C@H]3C(=O)C=C4[C@@H]5C[C@@](C)(C(=O)O)CC[C@]5(C)CC[C@@]4(C)[C@]3(C)CC[C@@H]12 [GR, Glycyrrhizic Acid, Monoammonium salt]
- Release from Chewed Gum Bolus after 25 min [1]: 85%
- Above MIC in Saliva (Y/N) [2]: Yes
- Rate of release from gum ([2]; human, in vivo): released from a gum base less quickly and over a longer period of time
- Maintenance of concentration in oral cavity above MIC ([2]; in words, released from a gum composition): maintain a concentration in the oral cavity at a level above the MIC
- concentration at 1 min (clinical): 3100 µg/mL
- concentration at 2.5 min (clinical): 111 µg/mL
- concentration at 5 min (clinical): 55 µg/mL
- concentration at 10 min (clinical): 30 µg/mL
- concentration at 25 min (clinical): 10 µg/mL

Reference: patent publication US6248309A, “Gums containing antimicrobial agents” (priority 1999, dated 2001)
